Results taken from US20230129359A1, “MUSCARINIC RECEPTOR 4 ANTAGONISTS AND METHODS OF USE” (Neurocrine Biosciences, Inc., priority 2020, published 2023).

Target: T1, human M4 receptor (Homo sapiens, UniProt P08173)
T1 construct: expressed in transfected cells; host or cells: CHO cells
T1 sequence (P08173 1-479): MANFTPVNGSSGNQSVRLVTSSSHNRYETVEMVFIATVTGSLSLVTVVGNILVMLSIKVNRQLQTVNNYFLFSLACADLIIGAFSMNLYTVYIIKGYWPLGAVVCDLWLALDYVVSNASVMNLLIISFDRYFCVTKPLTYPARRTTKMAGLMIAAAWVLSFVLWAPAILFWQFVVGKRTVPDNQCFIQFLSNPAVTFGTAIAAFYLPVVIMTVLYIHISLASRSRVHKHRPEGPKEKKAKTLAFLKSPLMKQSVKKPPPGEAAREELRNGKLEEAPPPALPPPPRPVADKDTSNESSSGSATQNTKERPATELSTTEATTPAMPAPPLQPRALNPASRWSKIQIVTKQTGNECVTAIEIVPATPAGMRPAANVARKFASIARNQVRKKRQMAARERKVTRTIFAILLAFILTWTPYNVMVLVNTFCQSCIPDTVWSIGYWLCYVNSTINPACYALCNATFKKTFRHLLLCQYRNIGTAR
Test: Radioligand ([3H]N-methylscopolamine) binding assay, membranes from CHO cells expressing human M4 receptor
Details: Ki against human M4 receptor; membranes from CHO cells; tritiated N-methylscopolamine 1.5 nM; read-out: K
Protocol: Binding affinity (Ki) for the compounds was measured by inhibition of radioligand binding to membranes from CHO cells expressing human M4 receptor. Membranes were prepared by nitrogen cavitation and differential centrifugation as previously described (Hoare et al., Mol. Pharmacol. 2003 March; 63(3): 751-65). The radioligand employed was tritiated N-methylscopolamine, used at a concentration of 1.5 nM. A dose-response of twelve concentrations of compound was used, ranging from […]. The assay buffer was 50 mM HEPES, 100 mM NaCl, 5 mM MgCl2, 1 mM ethylenediaminetetraacetic acid, pH-adjusted to pH 7.4. Membranes, radioligand and compound were incubated together for 90 minutes at 37° C., in a total volume of 150 μL in a 96-well plate. Receptor-bound radioligand was then collected by harvesting the assay over glass fiber filters pretreated with polyethylenimine to trap the cell membranes, using rapid vacuum filtration. Harvesting and radioactivity counting was conducted as previously described (see, e.g., Hoare et al., Mol. Pharmacol. 2003 63(3):751-65); Erratum at Mol. Pharmacol. 2005 July; 68(1): 260).

Row | SMILES | Ki
1 | C[C@@H]1CN(c2ncc(C(F)(F)F)cn2)[C@@H](C)CN1C(=O)NC1CC2(C1)CN(Cc1ccccc1)C2 [Compound 1, (2R,5S)—N-{2-Benzyl-2-azaspiro[3.3]heptan-6-yl}-2,5-dimethyl-4-[5-(trifluoromethyl)pyrimidin-2-yl]piperazine-1-carboxamide] | < 10 nM
2 | C[C@H]1CN(c2ncc(C(F)(F)F)cn2)CCN1C(=O)NC1CC2(C1)CN(Cc1ccccc1)C2 [Compound 5, (2S)-N-{2-benzyl-2-azaspiro[3.3]heptan-6-yl}-2-methyl-4-[5-(trifluoromethyl)pyrimidin-2-yl]piperazine-1-carboxamide] | 10 to 100 nM
3 | C[C@H]1CN(C(=O)NC2CC3(C2)CN(Cc2ccccc2)C3)CCN1c1ncc(C(F)(F)F)cn1 [Compound 6, (3S)-N-{2-benzyl-2-azaspiro[3.3]heptan-6-yl}-3-methyl-4-[5-(trifluoromethyl)pyrimidin-2-yl]piperazine-1-carboxamide] | 10 to 100 nM
4 | C[C@@H]1CN(c2ncc(C(F)(F)F)cn2)CCN1C(=O)NC1CC2(C1)CN(Cc1ccccc1)C2 [Compound 7, (2R)-N-{2-benzyl-2-azaspiro[3.3]heptan-6-yl}-2-methyl-4-[5-(trifluoromethyl)pyrimidin-2-yl]piperazine-1-carboxamide] | 10 to 100 nM
5 | C[C@@H]1CN(c2ccc(F)c(C#N)c2)CCN1C(=O)NC1CC2(C1)CN(Cc1ccccc1)C2 [Compound 12, (2R)-N-{2-benzyl-2-azaspiro[3.3]heptan-6-yl}-4-(3-cyano-4-fluorophenyl)-2-methylpiperazine-1-carboxamide] | 10 to 100 nM
6 | C[C@@H]1CN(c2ccc(OC(F)(F)F)c(C#N)c2)CCN1C(=O)NC1CC2(C1)CN(Cc1ccccc1)C2 [Compound 13, (2R)-N-{2-benzyl-2-azaspiro[3.3]heptan-6-yl}-4-[3-cyano-4-(trifluoromethoxy)phenyl]-2-methylpiperazine-1-carboxamide] | < 10 nM
7 | C[C@@H]1CN(c2cnc(C(F)(F)F)cn2)CCN1C(=O)NC1CC2(C1)CN(Cc1ccccc1)C2 [Compound 22, (2R)-N-{2-benzyl-2-azaspiro[3.3]heptan-6-yl}-2-methyl-4-[5-(trifluoromethyl)pyrazin-2-yl]piperazine-1-carboxamide] | 100 to 1000 nM
8 | C[C@@H]1CN(c2ncc(C#N)cn2)[C@@H](C)CN1C(=O)NC1CC2(C1)CN(Cc1ccccc1)C2 [Compound 26, (2R,5S)-N-{2-benzyl-2-azaspiro[3.3]heptan-6-yl}-4-(5-cyanopyrimidin-2-yl)-2,5-dimethylpiperazine-1-carboxamide] | 10 to 100 nM
9 | C[C@@H]1CN(c2cnc(C(F)(F)F)cn2)[C@@H](C)CN1C(=O)NC1CC2(C1)CN(Cc1ccccc1)C2 [Compound 35, (2R,5S)-N-{2-benzyl-2-azaspiro[3.3]heptan-6-yl}-2,5-dimethyl-4-[5-(trifluoromethyl)pyrazin-2-yl]piperazine-1-carboxamide] | 10 to 100 nM
10 | C[C@@H]1CN(C(=O)NC2CC3(C2)CN(Cc2ccccc2)C3)[C@@H](C)CN1c1ncc(C(F)(F)F)cn1 [Compound 36, (2S,5R)-N-{2-benzyl-2-azaspiro[3.3]heptan-6-yl}-2,5-dimethyl-4-[5-(trifluoromethyl)pyrimidin-2-yl]piperazine-1-carboxamide] | 10 to 100 nM
11 | C[C@@H]1CN(C(=O)NC2CC3(C2)CN(Cc2ccccc2)C3)[C@@H](C)CN1c1cnc(C(F)(F)F)cn1 [Compound 37, (2S,5R)-N-{2-benzyl-2-azaspiro[3.3]heptan-6-yl}-2,5-dimethyl-4-[5-(trifluoromethyl)pyrazin-2-yl)piperazine-1-carboxamide] | 10 to 100 nM
12 | C[C@@H]1CN(c2ncc(C(F)(F)F)cn2)[C@H](C)CN1C(=O)NC1CC2(C1)CN(Cc1ccccc1)C2 [Compound 38, (2R,5R)-N-{2-benzyl-2-azaspiro[3.3]heptan-6-yl}-2,5-dimethyl-4-[5-(trifluoromethyl)pyrimidin-2-yl]piperazine-1-carboxamide] | 10 to 100 nM
13 | C[C@@H]1CN(c2cc(F)c(F)c(F)c2)CCN1C(=O)NC1CC2(C1)CN(Cc1ccccc1)C2 [Compound 44, (2R)-N-{2-benzyl-2-azaspiro[3.3]heptan-6-yl}-2-methyl-4-(3,4,5-trifluorophenyl)piperazine-1-carboxamide] | 10 to 100 nM
14 | C[C@@H]1CN(c2cc(F)c(F)c(F)c2)C[C@H](C)N1C(=O)NC1CC2(C1)CN(Cc1ccccc1)C2 [Compound 45, (2R,6S)-N-{2-benzyl-2-azaspiro[3.3]heptan-6-yl}-2,6-dimethyl-4-(3,4,5-trifluroophenyl)piperazine-1-carboxamide] | < 10 nM
15 | C[C@@H]1CN(c2ccc(C(F)(F)F)cc2)C[C@H](C)N1C(=O)NC1CC2(C1)CN(Cc1ccccc1)C2 [Compound 47, (2R,6S)-N-{2-benzyl-2-azaspiro[3.3]heptan-6-yl}-2,6-dimethyl-4-[4-(trifluoromethyl)phenyl]pipera-zine-1-carboxamide] | < 10 nM
16 | C[C@@H]1CN(c2ccc(C(F)(F)F)cc2)C[C@@H](C)N1C(=O)NC1CC2(C1)CN(Cc1ccccc1)C2 [Compound 51, (2R,6R)-N-{2-benzyl-2-azaspiro[3.3]heptan-6-yl}-2,6-dimethyl-4-[4-(trifluoromethyl)phenyl]pipera-zine-1-carboxamide] | < 10 nM
17 | C[C@@H]1CN(c2cnc(C(F)(F)F)cn2)C[C@H](C)N1C(=O)NC1CC2(C1)CN(Cc1ccccc1)C2 [Compound 62, (2R,6S)—N-{2-Benzyl-2-azaspiro[3.3]heptan-6-yl}-2,6-dimethyl-4-[5-(trifluoromethyl)pyrazin-2-yl]piperazine-1-carboxamide] | 10 to 100 nM
18 | C[C@@H]1CN(c2cnc(C(F)(F)F)cn2)C[C@@H](C)N1C(=O)NCC1CC2(C1)CN(Cc1ccccc1)C2 [Compound 63, (2R,6R)-N-({2-benzyl-2-azaspiro[3.3]heptan-6-yl}methyl)-2,6-dimethyl-4-[5-(trifluoromethyl)pyrazin-2-yl]piperazine-1-carboxamide] | 100 to 1000 nM
19 | C[C@@H]1CN(c2cnc(C(F)(F)F)cn2)C[C@@H](C)N1C(=O)NC1CC2(C1)CN(Cc1ccccc1)C2 [Compound 64, (2R,6R)-N-{2-benzyl-2-azaspiro[3.3]heptan-6-yl}-2,6-dimethyl-4-[5-(trifluoromethyl)pyrazin-2-yl]piperazine-1-carboxamide] | 100 to 1000 nM
20 | C[C@@H]1CN(c2ncc(C(F)(F)F)cn2)C[C@@H](C)N1C(=O)NC1CC2(C1)CN(Cc1ccccc1)C2 [Compound 65, (2R,6R)-N-{2-benzyl-2-azaspiro[3.3]heptan-6-yl}-2,6-dimethyl-4-[5-(trifluoromethyl)pyrimidin-2-yl]piperazine-1-carboxamide] | < 10 nM
21 | C[C@@H]1CN(c2ncc(C#N)cn2)C[C@H](C)N1C(=O)NC1CC2(C1)CN(Cc1ccccc1)C2 [Compound 66] | 100 to 1000 nM
22 | C[C@@H]1CN(c2cnc(C(F)(F)F)cn2)C[C@H](C)N1C(=O)NCC1CC2(C1)CN(Cc1ccccc1)C2 [Compound 67, (2R,6S)-N-({2-benzyl-2-azaspiro[3.3]hpetan-6-yl}methyl)-2,6-dimethyl-4-[5-(trifluoromethyl)pyrazin-2-yl]piperazine-1-carboxamide] | 100 to 1000 nM
23 | C[C@@H]1CN(c2ncc(C(F)(F)F)cn2)C[C@@H](C)N1C(=O)NCC1CC2(C1)CN(Cc1ccccc1)C2 [Compound 68, (2R,6R)-N-({2-benzyl-2-azaspiro[3.3]heptan-6-yl}methyl)-2,6-dimethyl-4-[5-(trifluoromethyl)pyrimidin-2-yl]piperazine-1-carboxamide] | 10 to 100 nM
24 | C[C@@H]1CN(c2ncc(C(F)(F)F)cn2)C[C@H](C)N1C(=O)NCC1CC2(C1)CN(Cc1ccccc1)C2 [Compound 97, (2R,6S)-N-({2-benzyl-2-azaspiro[3.3]heptna-6-yl}methyl)-2,6-dimethyl-4-[5-(trifluoromethyl)pyrimidin-2-yl]piperazine-1-carboxamide] | 10 to 100 nM
25 | O=C(OC1CC2(C1)CN(Cc1ccccc1)C2)N1CCN(c2cc(F)c(F)c(F)c2)CC1 [Compound 105, 2-benzyl-2-azaspiro[3.3]heptan-6-yl 4-(3,4,5-trifluorophenyl)piperazine-1-carboxylate] | 100 to 1000 nM
26 | O=C(OC1CC2(C1)CN(Cc1ccccc1)C2)N1CCN(c2ccc(OC(F)(F)F)cc2)CC1 [Compound 108, 2-benzyl-2-azaspiro[3.3]heptan-6-yl 4-[4-(trifluoromethoxy)phenyl]piper-azine-1-carboxylate] | 100 to 1000 nM
27 | O=C(OC1CC2(C1)CN(Cc1ccccc1)C2)N1C2CC1CN(c1cnc(C(F)(F)F)cn1)C2 [Compound 110, 2-benzyl-2-azaspiro[3.3]heptan-6-yl 3-[5-(trifluoromethyl)pyrazin-2-yl]-3,6-diazabicyclo[3.1.1]heptane-6-carboxylate] | 100 to 1000 nM
